The values below come from patent publication US20240402196A1 (Exact Sciences Corporation, priority 2018, published 2024).

Test [1] concerns the target T1, Hb (Homo sapiens, UniProt P68871+P69905).
T1 construct: To assess the stability of hemoglobin in stool samples, samples were exposed to simulated shipping stress conditions; from tissue; host or cells: stool samples
In words: Appendix B additive screen, % Hb Recovery.

Test [2] deals with T2, hemoglobin in stool samples (Homo sapiens, UniProt P68871+P69905). The test can be described thus: Accelerated shipping simulation (35C 16 hour challenge), hemoglobin % recovery by ELISA.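 Also: stool hemoglobin measured by ELISA before and after thermal-cycler shipping stress, stability given as percent of pre-stress hemoglobin recovered afterwards.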 Details: from tissue; host or cells: stool samples.
Test [3] deals with T2, hemoglobin in stool samples. In words: 3-Day shipping simulation, hemoglobin % recovery by ELISA.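 As to all read-outs here: stool samples put through shipping stress in a thermal cycler, hemoglobin quantified by ELISA before and after, stability given as post-stress % of the pre-stress level.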 The note with it: for Notes (Hb stability vs Hb Collection Buffer): additive concentrations as in the 8th table. Details: from tissue; host or cells: stool samples.
For test [4], the target named is T3, hemoglobin (Hb) (Homo sapiens, UniProt P68871+P69905).
T3 construct: To assess the stability of hemoglobin in stool samples, samples were exposed to simulated shipping stress conditions; from tissue; host or cells: stool samples
The test can be described thus: Appendix B: additives in Hb Collection Buffer, % Hb Recovery.

T2 sequence (P69905 2-142 limits assumed): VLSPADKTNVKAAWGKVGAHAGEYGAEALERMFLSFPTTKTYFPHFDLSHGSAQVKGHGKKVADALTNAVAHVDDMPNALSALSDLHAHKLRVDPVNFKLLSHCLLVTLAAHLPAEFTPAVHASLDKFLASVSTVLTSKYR
T2 sequence (P68871 2-147 limits assumed): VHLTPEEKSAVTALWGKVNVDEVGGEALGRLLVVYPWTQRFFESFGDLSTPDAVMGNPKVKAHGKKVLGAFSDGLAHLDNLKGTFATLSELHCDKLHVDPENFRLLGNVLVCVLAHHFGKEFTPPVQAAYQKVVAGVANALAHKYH
T1 sequence (P69905 2-142 limits assumed): as the sequence (P69905 2-142 limits assumed) above
T1 sequence (P68871 2-147 limits assumed): as the sequence (P68871 2-147 limits assumed) above
T3 sequence (P69905 2-142 limits assumed): as the sequence (P69905 2-142 limits assumed) above
T3 sequence (P68871 2-147 limits assumed): as the sequence (P68871 2-147 limits assumed) above

Regarding `CCn1cc[n+](C)c1.[Cl-]` [1-ethyl-3-methylimidazolium chloride], the Results result in test [1] is on record as “No Improvement”.

Turning to `CCCCCCn1cc[n+](C)c1.[Cl-]` [1-hexyl-3-methylimidazolium chloride], the Results entry in test [1] is “No Improvement”.

Consider `Cl.Cn1sccc1=O` [2-methyl-4-isothiazolin-3-one-hydrochloride], for which the Results entry in test [1] was “No Improvement”.

As for `O=[N+]([O-])C1(Br)COCOC1` [5-bromo-5-nitro-1,3-dioxane], the Results entry in test [1] is given as “No Improvement”.

As for `CC(=O)O.N` [Ammonium Acetate], in test [1], the Results entry is on record as “No Improvement”.

As to `Cl.N` [Ammonium Chloride], the Results entry in test [1] is recorded as “No Improvement”.

`N.N.O=C(O)C(=O)O` [Ammonium Oxalate]: the Results entry in test [1] was “No Improvement”.

In the case of `N.N.O=S(=O)(O)O` [Ammonium Sulfate], the Results result in test [1] is recorded as “No Improvement”.

In the case of `O=C1O[C@H]([C@@H](O)CO)C(O)=C1O` [Ascorbic Acid], the Results result in test [2] (additive concentration 0.2 uM), in test [2] (additive concentration 5 uM), in test [2] (additive concentration 10 uM), in test [2] (additive concentration 100 uM), in test [2] (additive concentration 10 mM) and in test [2] (additive concentration 25 mM) was “No Improvement” in each case. Moreover, the Results entry in test [2] (additive concentration l uM) was “No Improvement”; in test [3] (additive concentration 0.5 mM) it was “No improvement”; in test [3] (additive concentration 1 mM) it was “No improvement”; in test [3] (additive concentration 5 mM) it was “No improvement”.

For `[Ca+2].[Cl-].[Cl-]` [Calcium Chloride (anhydrous)], in test [1], the Results entry is reported as “Calcium cation shows”.

As to `O.O.[Ca+2].[Cl-].[Cl-]` [Calcium Chloride (dihydrate)], in test [1], the Results result is reported as “Calcium cation shows”.

As to `[Ca+2].[Cl-].[Cl-]` [Calcium Chloride, pH 6.5], the Results result in test [4] (Additive Concentration 10 mM) is listed as “No Improvement”.

For `O=C(NCO)N(CO)C1(CO)C(=O)NC(=O)N1CO` (stereo not drawn) [Diazolidinyl Urea], the Results result in test [2] (additive concentration 10 uM), in test [2] (additive concentration 100 uM), in test [2] (additive concentration 1 mM), in test [2] (additive concentration 10 mM), in test [3] (additive concentration 10 mM) and in test [3] (additive concentration 25 mM) was “No Improvement” each time. The Results entry in test [3] (additive concentration 50 mM), in test [3] (additive concentration 75 mM) and in test [3] (additive concentration 100 mM) was “No Improvement” in each case.

As to `OCCO` [Ethylene Glycol], the Results result in test [1] was “No Improvement”.

For `O=C(O)[C@H]1OC(O)[C@H](O)[C@@H](O)[C@H]1O` (stereo partly drawn) [Galaturonic Acid], the Results result is on record as “No Improvement” in test [4] (Additive Concentration 0.01%); “No improvement” in test [4] (Additive Concentration 0.01% + 10 mM); “No Improvement” in test [4] (Additive Concentration 0.10%); “No improvement” in test [4] (Additive Concentration 0.1% + 10 mM); “No Improvement” in test [4] (Additive Concentration 1%); “No improvement” in test [4] (Additive Concentration 1% + 10 mM).

`NCC(=O)O` [Glycine]: the Results entry in test [1] is recorded as “No Improvement”.

For `C=CC1=C(C)c2cc3[n-]c(cc4nc(cc5[n-]c(cc1n2)c(C)c5C=C)C(C)=C4CCC(=O)O)c(CCC(=O)O)c3C.[Cl-].[Fe+3]` [Hemin, pH 6.5], the Results entry in test [4] (Additive Concentration 0.00%) and in test [4] (additive concentration 0.0003%) was “Improvement in % Hb” in each case.

`[Cl][Fe][Cl]` [Iron (2) Chloride]: in test [1], the Results entry is listed as “No Improvement”.

On to `[Cl-].[Li+]` [Lithium Chloride], for which the Results result in test [1] was “No Improvement”.

`CC(=O)[O-].[K+]` [Potassium Acetate]: in test [1], the Results result was “No Improvement”.

For `[Cl-].[K+]` [Potassium Chloride], the Results result in test [1] is recorded as “No Improvement”.

Take `C=CC1=C(C)c2cc3[n-]c(cc4nc(cc5[n-]c(cc1n2)c(C)c5C=C)C(C)=C4CCC(=O)O)c(CCC(=O)O)c3C.[Cu+2]` [Protoporphyrin IX Copper]: the Results result in test [4] (Additive Concentration 0.1 uM), in test [4] (Additive Concentration 1 uM) and in test [4] (additive concentration 10 uM) was “No Improvement” in each case.

With `C=CC1=C(C)c2cc3[n-]c(cc4nc(cc5[n-]c(cc1n2)c(C)c5CCC(=O)O)C(CCC(=O)O)=C4C)c(C)c3C=C.[Mg+2]` [Protoporphyrin IX Magnesium], the Results result in test [4] (Additive Concentration 0.1 uM), in test [4] (Additive Concentration 1 uM), in test [4] (additive concentration 10 uM), in test [4] (additive concentration 25 uM) and in test [4] (additive concentration 50 uM) was “No Improvement” in each case.

With `C=CC1=C(C)c2cc3[n-]c(cc4nc(cc5[n-]c(cc1n2)c(C)c5C=C)C(C)=C4CCC(=O)O)c(CCC(=O)O)c3C.[Cl-].[Mn+3]` [Protoporphyrin IX Mangansese], the Results entry in test [4] (Additive Concentration 0.05 uM), in test [4] (Additive Concentration 0.1 uM), in test [4] (Additive Concentration 1 uM) and in test [4] (additive concentration 10 uM) was “No Improvement” each time.

On to `C=CC1=C(C)c2cc3[n-]c(cc4nc(cc5[n-]c(cc1n2)c(C)c5C=C)C(C)=C4CCC(=O)O)c(CCC(=O)O)c3C.[Cl-].[Cl-].[Sn+4]` [Protoporphyrin IX Tin], for which the Results entry in test [4] (Additive Concentration 0.1 uM), in test [4] (Additive Concentration 1 uM) and in test [4] (additive concentration 10 uM) was “No Improvement” each time.

Turning to `C=CC1=C(C)c2cc3[n-]c(cc4nc(cc5[n-]c(cc1n2)c(C)c5C=C)C(C)=C4CCC(=O)O)c(CCC(=O)O)c3C.[Zn+2]` [Protoprophyrin IX Zn], the Results result in test [1] is listed as “No Improvement”.

Regarding `O=c1c(O)c(-c2ccc(O)c(O)c2)oc2cc(O)cc(O)c12` [Quercetin], the Results result in test [2] (additive concentration 0.6 uM) is on record as “No Improvement”; in test [2] (additive concentration 6 uM), “No Improvement”; in test [2] (additive concentration 60 uM) it was “No Improvement”; in test [3] (Additive Concentration 150 uM) it was “No improvement”; in test [3] (Additive Concentration 300 uM), “No improvement”; in test [3] (Additive Concentration 600 uM), “No improvement”.

For the compound `OC[C@H]1O[C@@](CO)(O[C@H]2O[C@H](CO)[C@@H](O)[C@H](O)[C@H]2O)[C@@H](O)[C@@H]1O` [Sucrose], the Results result in test [2] (additive concentration […]) was “Improvement”. The “Notes (Hb stability vs Hb Collection Buffer)” value in test [3] is given as “Improved Hb”.

As for `OC[C@H]1O[C@H](O[C@H]2O[C@H](CO)[C@@H](O)[C@H](O)[C@H]2O)[C@H](O)[C@@H](O)[C@@H]1O` [Trehalose], the Results result in test [2] (additive concentration 0.0174 mM) is “No Improvement”; in test [2] (additive concentration 0.174 mM), “No Improvement”; in test [2] (additive concentration 1.74 mM), “No Improvement”; in test [2] (additive concentration 10 mM) it was “No Improvement”; in test [2] (additive concentration 16.76 mM) it was “No Improvement”; in test [2] (additive concentration 0.3M) it was “Improvement”. In addition, in test [3], the “Notes (Hb stability vs Hb Collection Buffer)” value is recorded as “Improved Hb”.

Consider `[Cl-].[Cl-].[Zn+2]` [Zinc Chloride], for which the Results entry in test [3] (additive concentration 1 mM), in test [3] (additive concentration 10 mM) and in test [3] (additive concentration 25 mM) was “No Improvement” each time.

Consider `N.N.N.O=C(O)C1=CC(=C(c2ccc(O)c(C(=O)O)c2)c2ccc(O)c(C(=O)O)c2)C=CC1=O` [aurintircarboxylic acid ammonium salt], for which the Results result in test [3] (Additive Concentration 5%), in test [3] (Additive Concentration 10%) and in test [3] (Additive Concentration 25%) was “No improvement” in each case.

BSA (10 mM MOPS): the Results entry in test [3] (Additive Concentration 1%) is listed as “No Improvement”.

Regarding BSA, pH 6.5, the Results entry in test [4] (Additive Concentration 0%), in test [4] (Additive Concentration 0.50%), in test [4] (Additive Concentration 1%), in test [4] (Additive Concentration 5%) and in test [4] (Additive Concentration 10%) was “No Improvement” in each case.
